Measured values published in PubChem BioAssay (NCI).
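Here, GI50 denotes the concentration required for 50% inhibition of growth. TGI: total growth inhibition.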

Tests used:
Assay in all cases: NCI anticancer screen, dose series, 384-well format
NCI-H322M lung = system: NCI-H322M lung
UACC-257 melanoma = system: UACC-257 melanoma
SNB-19 CNS = system: SNB-19 CNS
MOLT-4 leukemia = system: MOLT-4 leukemia
HT29 colon = system: HT29 colon
A498 renal = system: A498 renal
PC-3 prostate = system: PC-3 prostate
M14 melanoma = system: M14 melanoma
EKVX NSCLC = system: EKVX NSCLC
SF-539 CNS = system: SF-539 CNS
LOX IMVI melanoma = system: LOX IMVI melanoma
SR leukemia = system: SR leukemia
NCI-H460 NSCLC = system: NCI-H460 NSCLC

`COc1nn(C)cc1Nc1nccc(-c2c[nH]c3c(NC(=O)[C@@H](C)N4CCN(C)CC4)cccc23)n1` was tested, and the GI50 (NCI-H322M lung) was greater than 52.3 µM, the TGI (NCI-H322M lung) was greater than 100 µM and the GI50 (UACC-257 melanoma) was 16.9 µM. The TGI (UACC-257 melanoma) was 30.7 µM, the GI50 (SNB-19 CNS) was 41.2 µM and the TGI (SNB-19 CNS) was greater than 100 µM. The GI50 (MOLT-4 leukemia) was 13.2 µM, the TGI (MOLT-4 leukemia) was 26.4 µM and the GI50 (HT29 colon) was 17.7 µM. For the same molecule, the TGI (HT29 colon) was 32.8 µM, the GI50 (A498 renal) was 14.2 µM and the TGI (A498 renal) was greater than 60.4 µM. It also gave a GI50 (PC-3 prostate) of 23.1 µM, a TGI (PC-3 prostate) of 86 µM and a GI50 (M14 melanoma) of 16.1 µM. It also gave a TGI (M14 melanoma) of 31.2 µM, a GI50 (EKVX NSCLC) of 18.7 µM and a TGI (EKVX NSCLC) of 49.5 µM. The GI50 (SF-539 CNS) was 14.8 µM, the TGI (SF-539 CNS) was 30.3 µM and the GI50 (LOX IMVI melanoma) was 15.1 µM. It also gave a TGI (LOX IMVI melanoma) of 28.4 µM, a GI50 (SR leukemia) of 9.69 µM and a TGI (SR leukemia) of 21.5 µM. The GI50 (NCI-H460 NSCLC) was 25.4 µM and the TGI (NCI-H460 NSCLC) was greater than 77 µM.
